Laboratory results reported in patent publication US6686393B1, “Pharmaceutical compositions having antiviral activity against human cytomegalovirus” (Murdock International Corporation, priority 1990, dated 2004).
Several values for one entry are separate records, joined by “and”; a condition that tells them apart may be missing. Equal values may be shown once. Entries after “also recorded” stand apart in the source; their conditions may differ. Read-outs that look alike come from different tables or passages of the source.

Tests used:
[1] = tested on: human cytomegalovirus (HCMV), strain AD-169; test: Antiviral test (plaque reduction) versus HCMV, strain AD-169, in MRC-5 cells; format: cell-based; conditions: for Activity against HCMV: statement in words on the plaque reduction results
[2] = tested on: MRC-5 cells
[3] = Human betaherpesvirus 5, AD169, MRC5, read-out: % Reduction
[4] = Human betaherpesvirus 5, AD169, MRC5, read-out: Percent Inhibition of Plaque Numbers (Compared to Virus Controls)

For `O=C1c2cccc(O)c2C(=O)c2c(O)cccc21` [1,8-Dihydroxyanthraquinone, 1,8-dihydroxyanthraquinone], the “Number of Plaques” value ([1]; 0.01 μg/ml, Example 6) was 10, the “Number of Plaques” value ([1]; 0.01 μg/ml, Example 7) was 26 and the “Number of Plaques” value ([1]; 0.032 μg/ml, Example 6) was 9. The “Number of Plaques” value ([1]; 0.032 μg/ml, Example 7) was 20, the “Number of Plaques” value ([1]; 0.1 μg/ml, Example 6) was 10 and the “Number of Plaques” value ([1]; 0.1 μg/ml, Example 7) was 22. For the same compound, the “Number of Plaques” value ([1]; 0.32 μg/ml, Example 6) was 12, the “Number of Plaques” value ([1]; 0.32 μg/ml, Example 7) was 44 and the “Number of Plaques” value ([1]; 1.0 μg/ml, Example 6) was 10. The “Number of Plaques” value ([1]; 1.0 μg/ml, Example 7) was 35, the “Number of Plaques” value ([1]; 3.2 μg/ml, Example 6) was 8 and the “Number of Plaques” value ([1]; 3.2 μg/ml, Example 7) was 42. For the same compound, the “Number of Plaques” value ([1]; 10.0 μg/ml, Example 6) was 12, the “Number of Plaques” value ([1]; 10.0 μg/ml, Example 7) was 30 and the inhibition at 0.01 µg/mL ([1]; Human betaherpesvirus 5, AD169, MRC5, 0.01 μg/ml, Example 6, read-out: % Reduction) was 0%. It also gave an inhibition at 0.01 µg/mL ([1]; Human betaherpesvirus 5, AD169, MRC5, 0.01 μg/ml, Example 7, read-out: % Reduction) of 0%, an inhibition at 0.032 µg/mL ([1]; Human betaherpesvirus 5, AD169, MRC5, 0.032 μg/ml, Example 6, read-out: % Reduction) of 0% and an inhibition at 0.032 µg/mL ([1]; Human betaherpesvirus 5, AD169, MRC5, 0.032 μg/ml, Example 7, read-out: % Reduction) of 37%. The inhibition at 0.1 µg/mL ([1]; Human betaherpesvirus 5, AD169, MRC5, 0.1 μg/ml, Example 6, read-out: % Reduction) was 0%, the inhibition at 0.1 µg/mL ([1]; Human betaherpesvirus 5, AD169, MRC5, 0.1 μg/ml, Example 7, read-out: % Reduction) was 31% and the inhibition at 0.32 µg/mL ([1]; Human betaherpesvirus 5, AD169, MRC5, 0.32 μg/ml, Example 6, read-out: % Reduction) was 0%. It also gave an inhibition at 0.32 µg/mL ([1]; Human betaherpesvirus 5, AD169, MRC5, 0.32 μg/ml, Example 7, read-out: % Reduction) of 0%, an inhibition at 1 µg/mL ([1]; Human betaherpesvirus 5, AD169, MRC5, 1.0 μg/ml, Example 6, read-out: % Reduction) of 0% and an inhibition at 1 µg/mL ([1]; Human betaherpesvirus 5, AD169, MRC5, 1.0 μg/ml, Example 7, read-out: % Reduction) of 0%. It also gave an inhibition at 3.2 µg/mL ([1]; Human betaherpesvirus 5, AD169, MRC5, 3.2 μg/ml, Example 6, read-out: % Reduction) of 0%, an inhibition at 3.2 µg/mL ([1]; Human betaherpesvirus 5, AD169, MRC5, 3.2 μg/ml, Example 7, read-out: % Reduction) of 0% and an inhibition at 10 µg/mL ([1]; Human betaherpesvirus 5, AD169, MRC5, 10.0 μg/ml, Example 6, read-out: % Reduction) of 0%. The inhibition at 10 µg/mL ([1]; Human betaherpesvirus 5, AD169, MRC5, 10.0 μg/ml, Example 7, read-out: % Reduction) was 0%, the “Activity against HCMV” value ([1]; listed as 1,8-dihydroxy anthraquinone) was “Slight activity” and the “Activity against HCMV” value ([1]; listed as 1,8-dihydroxyanthraquinone) was “show activity; also recorded: activity but at lower levels”. It also gave a CD50 ([2]; human) greater than 10 µg/mL.

In the case of `O=C(O)c1cc(O)c2c(c1)[C@H]([C@H]1c3cc(C(=O)O)cc(O)c3C(=O)c3c(O[C@@H]4O[C@H](CO)[C@@H](O)[C@H](O)[C@H]4O)cccc31)c1cccc(O[C@@H]3O[C@H](CO)[C@@H](O)[C@H](O)[C@H]3O)c1C2=O` [(+)Sennoside A, sennoside A], the “Percent Inhibition of Plaque Numbers (Compared to Virus Controls)” value (“Percent Inhibition of Plaque Numbers” below) ([1]; 0.01 μg/ml, Example 2) was 0%, the “Percent Inhibition of Plaque Numbers” value ([1]; 0.032 μg/ml, Example 2) was 0% and the “Percent Inhibition of Plaque Numbers” value ([1]; 0.1 μg/ml, Example 2) was 0%. The “Percent Inhibition of Plaque Numbers” value ([1]; 0.32 μg/ml, Example 2) was 0%, the “Percent Inhibition of Plaque Numbers” value ([1]; 1.0 μg/ml, Example 2) was 0% and the “Percent Inhibition of Plaque Numbers” value ([1]; 3.2 μg/ml, Example 2) was 0%. The “Percent Inhibition of Plaque Numbers” value ([1]; 10 μg/ml, Example 2, ethanol stock (protohypericin in DMSO), cells exposed 6 or more days) was 0%, the CD50 ([2]; Example 2, cells exposed 6 or more days) was greater than 10 µg/mL and the CD50 ([2]; Table 9 summary, two values = two experiments) was greater than 10 µg/mL.

For `O=C1c2cccc(O)c2C(=O)c2c(O)cc(CO)cc21` [Aloe-Emodin, aloe-emodin], the inhibition at 0.01 µg/mL ([1]; Human betaherpesvirus 5, AD169, MRC5, 0.01 μg/ml, Example 2, read-out: Percent Inhibition of Plaque Numbers (Compared to Virus Controls)) was 0%, the inhibition at 0.032 µg/mL ([1]; Human betaherpesvirus 5, AD169, MRC5, 0.032 μg/ml, Example 2, read-out: Percent Inhibition of Plaque Numbers (Compared to Virus Controls)) was 0% and the inhibition at 0.1 µg/mL ([1]; Human betaherpesvirus 5, AD169, MRC5, 0.1 μg/ml, Example 2, read-out: Percent Inhibition of Plaque Numbers (Compared to Virus Controls)) was 0%. The inhibition at 0.32 µg/mL ([1]; Human betaherpesvirus 5, AD169, MRC5, 0.32 μg/ml, Example 2, read-out: Percent Inhibition of Plaque Numbers (Compared to Virus Controls)) was 0%, the inhibition at 1 µg/mL ([1]; Human betaherpesvirus 5, AD169, MRC5, 1.0 μg/ml, Example 2, read-out: Percent Inhibition of Plaque Numbers (Compared to Virus Controls)) was 0% and the inhibition at 3.2 µg/mL ([1]; Human betaherpesvirus 5, AD169, MRC5, 3.2 μg/ml, Example 2, read-out: Percent Inhibition of Plaque Numbers (Compared to Virus Controls)) was 0%. For the same compound, the inhibition at 10 µg/mL ([1]; Human betaherpesvirus 5, AD169, MRC5, 10 μg/ml, Example 2, ethanol stock (protohypericin in DMSO), cells exposed 6 or more days, read-out: Percent Inhibition of Plaque Numbers (Compared to Virus Controls)) was 0% and the CD50 ([2]; human) was greater than 10 µg/mL.

`O=C1c2c(O)cccc2C([C@@H]2O[C@H](CO)[C@@H](O)[C@H](O)[C@H]2O)c2cc(CO)cc(O)c21` (stereo partly shown) [Aloin, aloin] was tested, and the “Number of Plaques” value [1] was 24 and 26 and 20 and 16, the inhibition at 0.01 µg/mL [1, 3] was 0% and the inhibition at 0.032 µg/mL [1, 3] was 0%. For the same compound, the inhibition at 0.1 µg/mL [1, 3] was 0%, the inhibition at 0.32 µg/mL [1, 3] was 0% and the inhibition at 1 µg/mL [1, 3] was 0%. The inhibition at 3.2 µg/mL [1, 3] was 0%, the inhibition at 10 µg/mL [1, 3] was 0% and the CD50 ([2]; human) was greater than 10 µg/mL.

Work on `O=C1c2ccc(O)cc2C(=O)c2ccc(O)cc21` [Anthraflavic Acid, anthraflavic acid] yielded an inhibition at 0.01 µg/mL [1, 4] of 0%, an inhibition at 0.032 µg/mL [1, 4] of 0% and an inhibition at 0.1 µg/mL [1, 4] of 0%. The inhibition at 0.32 µg/mL [1, 4] was 0%, the inhibition at 1 µg/mL [1, 4] was 11% and the inhibition at 3.2 µg/mL [1, 4] was 15%. The CD50 ([2]; human) was 3.4 µg/mL.

With `O=C1c2ccccc2C(=O)c2ccccc21` [Anthraquinone, anthraquinone] the “Number of Plaques” value ([1]; 0.01 μg/ml, Example 5) was 36, the “Number of Plaques” value ([1]; 0.032 μg/ml, Example 5) was 27 and the “Number of Plaques” value ([1]; 0.1 μg/ml, Example 5) was 30. For the same compound, the “Number of Plaques” value ([1]; 0.32 μg/ml, Example 5) was 32, the “Number of Plaques” value ([1]; 1.0 μg/ml, Example 5) was 34 and the “Number of Plaques” value ([1]; 3.2 μg/ml, Example 5) was 36. For the same compound, the “Number of Plaques” value ([1]; 10.0 μg/ml, Example 5) was 55, the inhibition at 0.01 µg/mL ([1]; Human betaherpesvirus 5, AD169, MRC5, 0.01 μg/ml, Example 5, read-out: % Reduction) was 20% and the inhibition at 0.032 µg/mL ([1]; Human betaherpesvirus 5, AD169, MRC5, 0.032 μg/ml, Example 5, read-out: % Reduction) was 27%. The inhibition at 0.1 µg/mL ([1]; Human betaherpesvirus 5, AD169, MRC5, 0.1 μg/ml, Example 5, read-out: % Reduction) was 33%, the inhibition at 0.32 µg/mL ([1]; Human betaherpesvirus 5, AD169, MRC5, 0.32 μg/ml, Example 5, read-out: % Reduction) was 29% and the inhibition at 1 µg/mL ([1]; Human betaherpesvirus 5, AD169, MRC5, 1.0 μg/ml, Example 5, read-out: % Reduction) was 24%. For the same compound, the inhibition at 3.2 µg/mL ([1]; Human betaherpesvirus 5, AD169, MRC5, 3.2 μg/ml, Example 5, read-out: % Reduction) was 20%, the inhibition at 10 µg/mL ([1]; Human betaherpesvirus 5, AD169, MRC5, 10.0 μg/ml, Example 5, read-out: % Reduction) was 0% and the CD50 ([2]; human) was greater than 10 µg/mL.
